Laboratory results taken from patent US11578095B2, “Compositions and methods for synthesizing 5'-Capped RNAs” (TriLink Biotechnologies, LLC, priority 2015, dated 2023).

Columns and labels:
[1] = biological target: T1, T7 RNA polymerase (Escherichia phage T7, UniProt P00573); type: biochemical, T7 bacteriophage; conditions: Primer/NTP Formulation 1: 6 mM primer, 1.5 mM GTP, 7.5 mM each ATP, CTP, UTP; capped peaks/(capped + 5′ OH peak)
T1 construct: purchased New England Biolabs M0251
Experimental: A double stranded DNA transcription template encoding firefly luciferase was generated by polymerase chain reaction. The +1 template nucleotide was 2′-deoxycytidine. Transcription reactions were assembled with 25 ug/mL transcription template, 40 mM Tris-HCl (pH 8.0), 27 mM MgCl2, 2 mM spermidine, 10 mM DTT, 0.002% Triton X-100, 1000 unit/mL murine RNase inhibitor (New England Biolabs catalog #M0314), 2 unit/mL inorganic pyrophosphatase (New England Biolabs catalog #M2403), 4000 units/mL T7 RNA polymerase (New England Biolabs catalog #M0251), 6 mM ARCA (^m7G3′OmepppGG), 1.5 mM GTP, 7.5 mM ATP, 7.5 mM CTP and 7.5 mM UTP. Transcriptions were incubated at 37° C. for 2 hours. Reactions were supplemented with 10 mM Tris-HCl (pH 7.6), 2.5 mM MgCl2, 0.5 mM CaCl2 and 100 units/mL DNase I (New England Biolabs catalog #M0303) and incubated for 1 hour at 37° C. The resulting mRNAs were purified using an RNeasy Maxi kit (Qiagen catalog #75162) according to manufacturer's instructions. mRNAs were eluted in water and dephosphorylated by adjusting the solution to 50 mM Bis-Tris-Propane HCl (pH 6.0), 1 mM MgCl2, 0.1 mM ZnCl2 and 250 units/mg Antarctic phosphatase (New England Biolabs catalog #M0289). The reaction were incubated at 37° C. for 1 hour. The resulting mRNAs were purified using an RNeasy Maxi kit (Qiagen catalog #75162) according to manufacturer's instructions. mRNAs were eluted in water.
A double stranded firefly luciferase DNA transcription template specific for each trimer is generated by polymerase chain reaction. These templates differed in template nucleotides +1 and +2. For a given trimer, template nucleotide +1 was complementary to B1 (the nucleotide destined to become transcript nucleotide +1). Likewise template nucleotide +2 was complementary to […] (the nucleotide destined to become transcript nucleotide +2; see Example 10)). Transcription reactions are assembled with 25 ug/mL transcription template, 40 mM Tris-HCl (pH 8.0), 27 mM MgCl2, 2 mM spermidine, 10 mM DTT, 0.002% Triton X-100, 1000 unit/mL murine RNase inhibitor (New England Biolabs catalog #M0314), 2 unit/mL inorganic pyrophosphatase (New England Biolabs catalog #M2403), 4000 units/mL T7 RNA polymerase (New England Biolabs catalog #M0251) and 6 mM of initiating capped oligonucleotide primer, 1.5 mM GTP and 7.5 mM each of ATP, CTP and UTP. In subsequent examples, this primer/NTP formulation will be referred to as Primer/NTP Formulation 1. It is clear to one skilled in the art that other polymerases such as T7, T3 or SP6 RNA polymerases could be used instead of T7 RNA polymerase to perform the same function by using their respective promoters. Transcription reaction mixtures are incubated at 37° C. for 2 hours. Reactions are supplemented with 10 mM Tris-HCl (pH 7.6), 2.5 mM MgCl2, 0.5 mM CaCl2 and 100 units/mL DNase I (New England Biolabs catalog #M0303) and incubated for 1 hour at 37° C. The resulting mRNAs are purified using an RNeasy Maxi kit (Qiagen catalog #75162) according to manufacturer's instructions. mRNAs are eluted in water and dephosphorylated by adjusting the solution to 50 mM Bis-Tris-Propane HCl (pH 6.0), 1 mM MgCl2, 0.1 mM ZnCl2 and 250 units/mg Antarctic phosphatase (New England Biolabs catalog #M0289). The reaction is incubated at 37° C. for 1 hour. The resulting mRNAs are purified using an RNeasy Maxi kit (Qiagen catalog #75162) according to manufacturer's instructions. mRNAs are eluted in water.
Initiating capped oligonucleotide primer ^7mG3′OmepppA2′OmepG2′OmepG were used in transcription. Transcription were carried out as in Example 11 with the following modifications. A double stranded DNA transcription template specific for tetramer was generated by polymerase chain reaction. The template nucleotide +1 (2′-deoxythymidine) was complementary to Adenosine (the first nucleotide of the primer destined to become a transcript nucleotide +1).

[2] = biological target: T1, T7 RNA polymerase; assay: In vitro transcription of firefly luciferase template, purified transcription yield; type: biochemical, T7 bacteriophage
Experimental: A double stranded firefly luciferase DNA transcription template was used with 2′-deoxythymidine and 2′-deoxycytidine residues at template positions +1 and +2, respectively. Two transcription reactions were assembled with 25 ug/mL transcription template, 40 mM Tris-HCl (pH 8.0), 27 mM MgCl2, 2 mM spermidine, 10 mM DTT, 0.002% Triton X-100, 1000 unit/mL murine RNase inhibitor (New England Biolabs catalog #M0314), 2 unit/mL inorganic pyrophosphatase (New England Biolabs catalog #M2403), 4000 units/mL T7 RNA polymerase (New England Biolabs catalog #M0251). The two transcriptions differed in the amount of initiating capped oligonucleotide, amount of NTPs and the identity of NTPs. The first transcription was designed to mimic the transcription conditions of Ishikawa et al. (Nucleic Acids Symposium Series No. 53:129 (2009)). This transcription reaction contained 6 mM of ^m7GpppA2′OmepG initiating capped oligonucleotide primer, 0.9 mM GTP and 7.5 mM of ATP, CTP and UTP. In subsequent examples this primer/NTP formulation will be referred to as Primer/NTP Formulation 2. In this formulation, the initiating oligonucleotide primer was in greater than 6 fold excess over GTP. The second transcription used 5 mM of ^m7GpppA2′OmepG initiating capped oligonucleotide primer, 5 mM GTP, ATP, CTP and pseudouridine triphosphate […]. In subsequent examples this primer/NTP formulation will be referred to as Primer/NTP Formulation 3. In Primer/NTP Formulation 3, the GTP concentration was increased in order to produce commercially useful amounts of RNA. It is clear to one skilled in the art that other polymerases such as T7, T3 or SP6 RNA polymerases could be used instead of T7 RNA polymerase to perform the same function by using their respective promoters. Transcription reaction mixtures are incubated at 37° C. for 2 hours. Reactions were supplemented with 10 mM Tris-HCl (pH 7.6), 2.5 mM MgCl2, 0.5 mM CaCl2 and 100 units/mL DNase I (New England Biolabs catalog #M0303) and incubated for 1 hour at 37° C. The resulting mRNAs were purified using an RNeasy Maxi kit (Qiagen catalog #75162) according to manufacturer's instructions. mRNAs were eluted in water and dephosphorylated by adjusting the solution to 50 mM Bis-Tris-Propane HCl (pH 6.0), 1 mM MgCl2, 0.1 mM ZnCl2 and 250 units/mg Antarctic phosphatase (New England Biolabs catalog #M0289). The reaction was incubated at 37° C. for 1 hour for Primer/NTP Formulation 2 and 3 hours for Primer/NTP Formulation 3 hour. The resulting mRNAs were purified using an RNeasy Maxi kit (Qiagen catalog #75162) according to manufacturer's instructions. mRNAs were eluted in water. The purified transcription yields with Primer/NTP Formulation 2 and 3 were 0.7 milligram/milliliter transcription reaction (mg/mL) and 3.9 mg/mL transcription reaction, respectively. […]

[3] = test system: THP-1 cells; assay: Translation of luciferase mRNAs in differentiated THP-1 cells; type: cell-based; conditions: 100 ng mRNA per well
Experimental: In order to assess the expression of luciferase mRNAs generated in Examples 14 and 15, mRNAs were transfected into THP-1 cells (ATCC, Catalog #TIB-202) with six replicates. THP-1 cells were cultured in ATCC formulated RPMI-1640 (ATCC, Catalog #30-2001) supplemented with 10% FBS, sodium pyruvate and penicillin/streptomycin at 37° C. under an atmosphere of 5% CO2. Cells were seeded at 2E+05 cells per well in a 24-well plate format in the presence of the phorbol ester 12-O-Tetradecanoylphorbol-13-acetate (TPA; Cell Signaling Technologies, Catalog #4174) to induce differentiation. Cells were transfected with 100 ng of mRNA per well 72 hours after seeding. For comparison, cells were also transfected with a Cap0 luciferase mRNA generated by initiation with ARCA. At 20 hours post-transfection, cells were harvested and luciferase activity was measured using a ONE-Glo Luciferase Assay System kit (Promega Catalog #E6120) according to the manufacturer's recommendations. Luminescence was measured using a GloMax-Multi+Detection System instrument according to the manufacturer's recommendations. Data were graphed as the mean of six replicates +/−the standard deviation from the mean. Data were analyzed using the Unpaired t-test to generate p values as a measure of significance. […] In FIG. 14B, we also assessed the activity of an mRNA that was made with the “TC” Template and capped with ARCA (Cap 0). […]

[4] = biological target: T1, T7 RNA polymerase; assay: Capping assay (LC-MS) of mRNA made with ^m7GpppA2′OmepG on "TC" vs "CC" transcription template; type: biochemical, T7 bacteriophage
Experimental: A double stranded firefly luciferase DNA transcription template was used with 2′-deoxythymidine and 2′-deoxycytidine residues at template positions +1 and +2, respectively. Two transcription reactions were assembled with 25 ug/mL transcription template, 40 mM Tris-HCl (pH 8.0), 27 mM MgCl2, 2 mM spermidine, 10 mM DTT, 0.002% Triton X-100, 1000 unit/mL murine RNase inhibitor (New England Biolabs catalog #M0314), 2 unit/mL inorganic pyrophosphatase (New England Biolabs catalog #M2403), 4000 units/mL T7 RNA polymerase (New England Biolabs catalog #M0251). The two transcriptions differed in the amount of initiating capped oligonucleotide, amount of NTPs and the identity of NTPs. The first transcription was designed to mimic the transcription conditions of Ishikawa et al. (Nucleic Acids Symposium Series No. 53:129 (2009)). This transcription reaction contained 6 mM of ^m7GpppA2′OmepG initiating capped oligonucleotide primer, 0.9 mM GTP and 7.5 mM of ATP, CTP and UTP. In subsequent examples this primer/NTP formulation will be referred to as Primer/NTP Formulation 2. In this formulation, the initiating oligonucleotide primer was in greater than 6 fold excess over GTP. The second transcription used 5 mM of ^m7GpppA2′OmepG initiating capped oligonucleotide primer, 5 mM GTP, ATP, CTP and pseudouridine triphosphate […]. In subsequent examples this primer/NTP formulation will be referred to as Primer/NTP Formulation 3. In Primer/NTP Formulation 3, the GTP concentration was increased in order to produce commercially useful amounts of RNA. It is clear to one skilled in the art that other polymerases such as T7, T3 or SP6 RNA polymerases could be used instead of T7 RNA polymerase to perform the same function by using their respective promoters. Transcription reaction mixtures are incubated at 37° C. for 2 hours. Reactions were supplemented with 10 mM Tris-HCl (pH 7.6), 2.5 mM MgCl2, 0.5 mM CaCl2 and 100 units/mL DNase I (New England Biolabs catalog #M0303) and incubated for 1 hour at 37° C. The resulting mRNAs were purified using an RNeasy Maxi kit (Qiagen catalog #75162) according to manufacturer's instructions. mRNAs were eluted in water and dephosphorylated by adjusting the solution to 50 mM Bis-Tris-Propane HCl (pH 6.0), 1 mM MgCl2, 0.1 mM ZnCl2 and 250 units/mg Antarctic phosphatase (New England Biolabs catalog #M0289). The reaction was incubated at 37° C. for 1 hour for Primer/NTP Formulation 2 and 3 hours for Primer/NTP Formulation 3 hour. The resulting mRNAs were purified using an RNeasy Maxi kit (Qiagen catalog #75162) according to manufacturer's instructions. mRNAs were eluted in water. The purified transcription yields with Primer/NTP Formulation 2 and 3 were 0.7 milligram/milliliter transcription reaction (mg/mL) and 3.9 mg/mL transcription reaction, respectively.
A double stranded firefly luciferase DNA transcription template was used in which the +1 and +2 template nucleotides were cytidines and thus not completely complementary to the ^m7GpppA2′OmepG initiating capped oligonucleotide primer. Two transcription reactions were assembled with 25 ug/mL transcription template, 40 mM Tris-HCl (pH 8.0), 27 mM MgCl2, 2 mM spermidine, 10 mM DTT, 0.002% Triton X-100, 1000 unit/mL murine RNase inhibitor (New England Biolabs catalog #M0314), 2 unit/mL inorganic pyrophosphatase (New England Biolabs catalog #M2403), 4000 units/mL T7 RNA polymerase (New England Biolabs catalog #M0251). The two transcriptions differed in the amount of initiating capped oligonucleotide and NTPs. The first transcription was designed to mimic the transcription conditions of Ishikawa et al. (Nucleic Acids Symposium Series No. 53: 129 (2009)). This transcription reaction contained Primer/NTP Formulation 2. The second transcription used Primer/NTP Formulation 3. It is clear to one skilled in the art that other polymerases such as T7, T3 or SP6 RNA polymerases could be used instead of T7 RNA polymerase to perform the same function by using their respective promoters. […]

T1 sequence (P00573 whole entry): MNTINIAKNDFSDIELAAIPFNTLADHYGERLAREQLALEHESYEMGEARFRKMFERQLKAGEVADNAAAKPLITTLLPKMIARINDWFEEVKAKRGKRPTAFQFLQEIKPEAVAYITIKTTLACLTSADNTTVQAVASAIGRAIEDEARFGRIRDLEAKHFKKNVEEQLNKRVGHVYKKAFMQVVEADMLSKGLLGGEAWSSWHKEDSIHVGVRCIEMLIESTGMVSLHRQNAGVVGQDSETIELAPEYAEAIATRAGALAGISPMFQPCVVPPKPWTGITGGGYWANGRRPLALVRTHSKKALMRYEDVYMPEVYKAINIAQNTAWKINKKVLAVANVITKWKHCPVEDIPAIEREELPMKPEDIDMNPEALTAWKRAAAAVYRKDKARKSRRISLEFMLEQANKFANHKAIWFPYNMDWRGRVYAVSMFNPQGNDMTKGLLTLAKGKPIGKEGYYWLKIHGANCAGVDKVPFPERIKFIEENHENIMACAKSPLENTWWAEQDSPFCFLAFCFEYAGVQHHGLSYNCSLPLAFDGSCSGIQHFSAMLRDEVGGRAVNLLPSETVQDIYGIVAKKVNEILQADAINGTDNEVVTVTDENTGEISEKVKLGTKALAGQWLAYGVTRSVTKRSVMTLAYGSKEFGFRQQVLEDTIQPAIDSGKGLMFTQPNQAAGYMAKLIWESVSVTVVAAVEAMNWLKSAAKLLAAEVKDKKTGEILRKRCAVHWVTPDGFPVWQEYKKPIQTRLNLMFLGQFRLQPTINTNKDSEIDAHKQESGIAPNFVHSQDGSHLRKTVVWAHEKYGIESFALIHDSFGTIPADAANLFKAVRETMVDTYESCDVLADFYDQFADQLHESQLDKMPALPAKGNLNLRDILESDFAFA

Substance: ^m7G3′OmepppA2′OmepG
- observed % capping (capping efficiency) [1]: 99%

Substance: ^m7GpppA2′OmepG
- observed % capping (capping efficiency) [1]: 99%
- purified transcription yield ([2]; template +1/+2 2′-deoxythymidine/2′-deoxycytidine, Primer/NTP Formulation 2): 0.7 mg/mL
- purified transcription yield ([2]; template +1/+2 2′-deoxythymidine/2′-deoxycytidine, Primer/NTP Formulation 3): 3.9 mg/mL
- purified transcription yield ([2]; template +1/+2 cytidines, Primer/NTP Formulation 2): 0.6 mg/mL
- purified transcription yield ([2]; template +1/+2 cytidines, Primer/NTP Formulation 3): 3.9 mg/mL
- translation (luciferase activity), "TC" template vs "CC" template ([3]; 20 hours post-transfection, Primer/NTP Formulations 2 and 3 (FIG. 14A, 14B)): significantly superior
- fidelity of templated transcription initiation ([4]; template +1/+2 2′-deoxythymidine/2′-deoxycytidine, Formulations 2 and 3 (FIGS. 13A, 13B)): Only minor aberrant initiation products were detected
- capping efficiency ([4]; template +1/+2 2′-deoxythymidine/2′-deoxycytidine, Primer/NTP Formulation 2 (FIG. 13A)): 99%
- capping efficiency ([4]; template +1/+2 2′-deoxythymidine/2′-deoxycytidine, Primer/NTP Formulation 3 (FIG. 13B)): 96%
- fidelity of templated transcription initiation ([4]; template +1/+2 cytidine, Formulations 2 and 3 (FIGS. 13C, 13D)): initiated in two registers
- calculated capping efficiency (Cap 1+A and Cap 1 GtoA) ([4]; template +1/+2 cytidine, Primer/NTP Formulation 2 (FIG. 13C)): 97%
- calculated capping efficiency (Cap 1+A and Cap 1 GtoA) ([4]; template +1/+2 cytidine, Primer/NTP Formulation 3 (FIG. 13D)): 77%

Substance: ^m7G3′OmepppC2′OmepG
- observed % capping (capping efficiency) [1]: 97%

Substance: ^m7GpppA2′OmepG2′OmepG
- observed % capping (capping efficiency) [1]: 50%

Substance: ^7mG(3′-O-Me)pppG [^m7G3′OmepppG, reference compound]
- observed % capping (capping efficiency) [1]: 79%
- luciferase activity relative to transcripts made with ^m7GpppA2′OmepG on "TC" template ([3]; "TC" template, 20 hours post-transfection (FIG. 14B)): significantly less activity
